According to ChEMBL document CHEMBL1201862, “PubChem BioAssay data set” (2004):
The source made the active and inactive calls. Unless noted, the calls are words filed in the database; no cut-off is given here.

Legend:
[1] = potency of ADAM10 substrate cleavage blockers – biochemical, QFRET, dose response (AID 743254);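 further: ADAM10 enzyme with the DM2 quenched FRET peptide as substrate; EDANS fluorescence gain as the protease cuts the substrate; inhibitor potency against ADAM10 proteolytic activity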
[2] = target: Disintegrin and metalloproteinase domain-containing protein 17 (Homo sapiens, UniProt P78536); test: inhibition of ADAM17 substrate cleavage – biochemical, quenched FRET substrate, counter-screen for ADAM10 exosite inhibitor project, dose response (AID 743253)
Disintegrin and metalloproteinase domain-containing protein 17, sequence (P78536 whole entry, the tested form may be a part): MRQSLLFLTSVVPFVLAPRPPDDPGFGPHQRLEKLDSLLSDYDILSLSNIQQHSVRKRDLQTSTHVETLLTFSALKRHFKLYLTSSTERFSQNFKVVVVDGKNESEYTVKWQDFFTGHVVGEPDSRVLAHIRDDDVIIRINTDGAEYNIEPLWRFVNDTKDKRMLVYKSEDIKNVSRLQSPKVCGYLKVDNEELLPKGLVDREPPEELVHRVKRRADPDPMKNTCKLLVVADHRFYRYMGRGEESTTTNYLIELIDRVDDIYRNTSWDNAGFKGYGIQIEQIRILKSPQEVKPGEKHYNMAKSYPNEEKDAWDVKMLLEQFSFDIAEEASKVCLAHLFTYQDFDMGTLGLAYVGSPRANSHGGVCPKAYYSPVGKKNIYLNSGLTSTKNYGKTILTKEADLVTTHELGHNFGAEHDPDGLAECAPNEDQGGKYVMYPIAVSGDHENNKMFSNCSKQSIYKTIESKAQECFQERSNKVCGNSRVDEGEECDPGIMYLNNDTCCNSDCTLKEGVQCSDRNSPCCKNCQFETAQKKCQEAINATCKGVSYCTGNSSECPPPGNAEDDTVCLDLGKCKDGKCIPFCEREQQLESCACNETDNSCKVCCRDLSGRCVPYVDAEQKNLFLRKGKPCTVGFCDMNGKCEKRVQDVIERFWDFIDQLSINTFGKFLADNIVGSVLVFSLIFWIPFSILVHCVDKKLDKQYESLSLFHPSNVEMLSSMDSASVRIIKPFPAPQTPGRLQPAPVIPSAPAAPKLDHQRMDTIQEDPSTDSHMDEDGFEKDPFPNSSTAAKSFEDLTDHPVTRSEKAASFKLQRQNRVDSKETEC

cells = conditions: A549
[3] = target: Protein disulfide-isomerase (Homo sapiens, UniProt P07237); test: inhibition of PDI-mediated insulin reduction – biochemical, turbidity, dry powder samples, set 2, confirmation (AID 652146)
Protein disulfide-isomerase, sequence (P07237 whole entry): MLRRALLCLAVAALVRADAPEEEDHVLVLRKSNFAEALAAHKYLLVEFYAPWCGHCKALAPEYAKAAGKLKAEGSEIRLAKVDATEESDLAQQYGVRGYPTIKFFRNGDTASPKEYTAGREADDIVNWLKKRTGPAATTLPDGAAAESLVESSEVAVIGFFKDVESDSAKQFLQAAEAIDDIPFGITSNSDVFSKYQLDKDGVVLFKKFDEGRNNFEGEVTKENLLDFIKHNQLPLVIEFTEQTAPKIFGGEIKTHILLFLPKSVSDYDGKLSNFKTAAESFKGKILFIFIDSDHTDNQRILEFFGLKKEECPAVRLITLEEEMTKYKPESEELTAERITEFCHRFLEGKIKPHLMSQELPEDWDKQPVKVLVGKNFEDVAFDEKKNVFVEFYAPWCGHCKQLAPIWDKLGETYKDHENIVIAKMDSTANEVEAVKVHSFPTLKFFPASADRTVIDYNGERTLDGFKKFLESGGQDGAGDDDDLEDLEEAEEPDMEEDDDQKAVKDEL

[4] = HEK293T viability loss – cell-based, ATP luminescence, dry powder, Set6, cytotoxicity control, dose response (AID 743142); format: functional; conditions: HEK293
[5] = viability loss in A549 lung cancer cells – cell-based, CellTiter-Glo luminescence, dry powder, set 3, cytotoxicity control, dose response (AID 743146); format: functional
[6] = HeLa cell viability loss – 24 h, dry powder, set 2, cytotoxicity control, dose response (AID 651774); format: functional, cell-based
Fatty acid synthase = Fatty acid synthase (Homo sapiens, UniProt P49327); test: inhibition of human FAS-TE enzyme activity – biochemical, endpoint fluorescence intensity, powder samples, SAR follow-up (AID 652164); format: functional
Fatty acid synthase, sequence (P49327 whole entry): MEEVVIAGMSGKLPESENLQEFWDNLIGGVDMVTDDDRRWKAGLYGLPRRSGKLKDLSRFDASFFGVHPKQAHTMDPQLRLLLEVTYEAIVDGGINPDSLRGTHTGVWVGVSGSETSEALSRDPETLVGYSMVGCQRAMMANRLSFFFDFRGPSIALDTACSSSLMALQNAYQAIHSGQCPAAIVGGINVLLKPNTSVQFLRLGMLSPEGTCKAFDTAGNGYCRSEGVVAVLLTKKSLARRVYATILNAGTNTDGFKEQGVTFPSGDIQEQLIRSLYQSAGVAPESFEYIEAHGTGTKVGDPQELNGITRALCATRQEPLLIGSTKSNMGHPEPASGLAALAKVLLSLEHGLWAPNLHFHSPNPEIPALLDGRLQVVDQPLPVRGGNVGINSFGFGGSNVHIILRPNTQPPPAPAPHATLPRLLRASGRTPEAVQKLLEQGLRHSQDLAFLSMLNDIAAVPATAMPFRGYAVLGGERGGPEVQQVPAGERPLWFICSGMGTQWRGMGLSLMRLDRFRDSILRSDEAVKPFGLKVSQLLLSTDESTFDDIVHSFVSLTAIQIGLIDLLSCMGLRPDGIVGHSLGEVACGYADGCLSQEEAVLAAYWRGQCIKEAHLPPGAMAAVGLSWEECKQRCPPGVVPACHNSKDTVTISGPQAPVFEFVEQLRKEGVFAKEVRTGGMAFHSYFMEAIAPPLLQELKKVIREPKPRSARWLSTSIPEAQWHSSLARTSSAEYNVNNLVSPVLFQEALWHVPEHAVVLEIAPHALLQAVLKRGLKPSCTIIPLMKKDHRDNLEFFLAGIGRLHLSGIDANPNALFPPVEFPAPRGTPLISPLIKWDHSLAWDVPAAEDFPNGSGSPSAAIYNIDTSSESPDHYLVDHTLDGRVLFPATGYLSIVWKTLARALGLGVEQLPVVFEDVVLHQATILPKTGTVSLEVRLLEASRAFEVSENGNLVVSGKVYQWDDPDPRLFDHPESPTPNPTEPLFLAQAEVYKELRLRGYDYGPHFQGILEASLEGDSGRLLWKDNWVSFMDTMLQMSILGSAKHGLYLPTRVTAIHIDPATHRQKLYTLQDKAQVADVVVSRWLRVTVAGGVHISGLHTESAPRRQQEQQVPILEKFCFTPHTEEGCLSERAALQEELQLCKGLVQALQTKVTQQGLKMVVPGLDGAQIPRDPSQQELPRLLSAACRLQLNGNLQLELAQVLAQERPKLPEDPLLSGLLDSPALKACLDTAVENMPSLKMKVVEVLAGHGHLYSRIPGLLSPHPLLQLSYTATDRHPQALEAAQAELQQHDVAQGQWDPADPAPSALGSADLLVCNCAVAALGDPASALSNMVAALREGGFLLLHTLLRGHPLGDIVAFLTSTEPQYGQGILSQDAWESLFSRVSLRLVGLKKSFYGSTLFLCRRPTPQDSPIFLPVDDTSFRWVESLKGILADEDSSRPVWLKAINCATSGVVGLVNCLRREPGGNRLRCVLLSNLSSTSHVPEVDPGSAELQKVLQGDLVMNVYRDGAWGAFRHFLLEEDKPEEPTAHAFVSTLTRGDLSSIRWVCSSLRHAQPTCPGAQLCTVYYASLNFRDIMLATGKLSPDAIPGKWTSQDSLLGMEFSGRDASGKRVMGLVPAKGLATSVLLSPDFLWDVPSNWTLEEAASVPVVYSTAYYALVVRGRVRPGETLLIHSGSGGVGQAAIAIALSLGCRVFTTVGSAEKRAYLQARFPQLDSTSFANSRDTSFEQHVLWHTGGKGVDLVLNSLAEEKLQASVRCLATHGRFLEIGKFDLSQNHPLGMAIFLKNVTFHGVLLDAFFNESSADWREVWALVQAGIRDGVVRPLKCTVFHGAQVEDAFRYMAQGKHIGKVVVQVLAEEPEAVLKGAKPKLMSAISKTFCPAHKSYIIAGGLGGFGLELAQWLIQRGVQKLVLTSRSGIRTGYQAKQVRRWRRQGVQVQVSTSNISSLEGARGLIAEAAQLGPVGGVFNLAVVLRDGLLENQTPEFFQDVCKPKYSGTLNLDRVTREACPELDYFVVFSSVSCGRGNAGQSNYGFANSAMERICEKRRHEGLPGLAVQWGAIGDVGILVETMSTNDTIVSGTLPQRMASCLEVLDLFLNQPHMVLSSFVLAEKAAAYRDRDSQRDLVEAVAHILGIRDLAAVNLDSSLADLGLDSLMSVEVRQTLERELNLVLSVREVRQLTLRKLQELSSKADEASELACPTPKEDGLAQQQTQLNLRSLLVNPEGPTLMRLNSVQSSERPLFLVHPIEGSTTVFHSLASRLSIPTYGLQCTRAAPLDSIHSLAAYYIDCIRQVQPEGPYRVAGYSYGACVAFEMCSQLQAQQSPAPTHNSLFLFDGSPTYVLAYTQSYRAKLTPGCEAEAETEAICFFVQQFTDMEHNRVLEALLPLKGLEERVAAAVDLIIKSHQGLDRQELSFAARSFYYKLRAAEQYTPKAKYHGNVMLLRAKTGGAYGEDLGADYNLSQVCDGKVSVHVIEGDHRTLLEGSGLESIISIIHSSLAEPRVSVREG

Procathepsin L = Procathepsin L (Homo sapiens, UniProt P07711)
Procathepsin L, sequence (P07711 whole entry): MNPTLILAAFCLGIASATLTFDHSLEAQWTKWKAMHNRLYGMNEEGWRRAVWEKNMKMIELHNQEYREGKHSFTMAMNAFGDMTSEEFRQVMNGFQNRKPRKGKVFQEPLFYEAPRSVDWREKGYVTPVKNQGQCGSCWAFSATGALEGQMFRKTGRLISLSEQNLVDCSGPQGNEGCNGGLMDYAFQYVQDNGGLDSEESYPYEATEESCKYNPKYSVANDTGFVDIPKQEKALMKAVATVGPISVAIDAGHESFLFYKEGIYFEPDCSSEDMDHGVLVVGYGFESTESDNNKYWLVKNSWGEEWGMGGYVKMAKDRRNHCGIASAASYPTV

Aspartyl aminopeptidase = target: T1, Aspartyl aminopeptidase (Plasmodium falciparum 3D7, UniProt Q8I2J3)
T1 sequence (Q8I2J3 whole entry): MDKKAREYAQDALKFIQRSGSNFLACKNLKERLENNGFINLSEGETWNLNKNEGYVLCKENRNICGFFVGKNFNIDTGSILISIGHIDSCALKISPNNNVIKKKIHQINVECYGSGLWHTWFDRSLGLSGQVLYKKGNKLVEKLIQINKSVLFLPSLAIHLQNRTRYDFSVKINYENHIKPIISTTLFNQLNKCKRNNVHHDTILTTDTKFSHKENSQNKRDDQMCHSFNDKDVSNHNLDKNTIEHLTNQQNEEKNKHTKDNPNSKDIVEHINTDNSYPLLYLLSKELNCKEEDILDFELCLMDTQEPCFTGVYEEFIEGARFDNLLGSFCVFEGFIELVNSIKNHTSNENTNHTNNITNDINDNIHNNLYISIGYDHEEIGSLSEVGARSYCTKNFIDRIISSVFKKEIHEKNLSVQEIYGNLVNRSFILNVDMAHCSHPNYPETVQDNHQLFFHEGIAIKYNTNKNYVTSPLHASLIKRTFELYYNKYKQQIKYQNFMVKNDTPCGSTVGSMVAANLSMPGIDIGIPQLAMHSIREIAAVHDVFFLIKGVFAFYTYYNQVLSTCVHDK

[7] = target: 5-hydroxytryptamine receptor 2A (Mus musculus, UniProt P35363); format: functional, cell-based;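 further: CHO-K1 cells with tagged receptor and beta-arrestin; agonist potency measured as compound-induced activation of the receptor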
5-hydroxytryptamine receptor 2A, sequence (P35363 whole entry): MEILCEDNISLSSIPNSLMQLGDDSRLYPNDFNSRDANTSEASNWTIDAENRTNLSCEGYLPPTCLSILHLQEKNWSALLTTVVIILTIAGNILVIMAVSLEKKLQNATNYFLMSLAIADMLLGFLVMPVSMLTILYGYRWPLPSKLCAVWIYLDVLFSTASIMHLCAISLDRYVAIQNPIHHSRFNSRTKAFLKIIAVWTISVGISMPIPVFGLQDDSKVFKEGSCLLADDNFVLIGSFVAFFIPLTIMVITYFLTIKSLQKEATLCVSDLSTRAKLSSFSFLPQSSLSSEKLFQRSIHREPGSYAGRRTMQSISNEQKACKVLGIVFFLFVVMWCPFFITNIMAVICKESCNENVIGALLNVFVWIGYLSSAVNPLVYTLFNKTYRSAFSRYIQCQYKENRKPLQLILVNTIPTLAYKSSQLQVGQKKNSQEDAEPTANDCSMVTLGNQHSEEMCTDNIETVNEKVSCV

CCc1nc2ccc(C(=O)Nc3ccc(OC)c(OC)c3)cn2c1N(CC)Cc1cccc(Br)c1
IC50 [1]: > 69.5 µM (inactive) | IC50 [2]: > 69.5 µM (inactive)

Cc1c(C(=O)NCc2cccc([N+](=O)[O-])c2)sc(=O)n1Cc1cccc(F)c1
AC50 (cells): 48.4 µM (active)

CCOC(=O)C1CCN(C(=O)OC(C)(C)C)CC1
AC50 [3]: > 30 µM (inactive)

N#Cc1ccc(C(=O)NCCC(=O)N[C@@H]2CCCc3ccccc32)cc1
AC50 [4]: 17.1 µM (active) | AC50 [5]: > 52 µM (inactive)

O=C(Cc1ccc(Cl)cc1)NC1CCCC1
AC50 [6]: > 70 µM (inactive)

CCC(=O)Nc1nc(-c2ccc(S(=O)(=O)N(C)C)cc2)cs1
IC50 (Fatty acid synthase): 1.08 µM (active)

O=C(CCNC(=O)c1ccc2c(c1)OC(F)(F)O2)N[C@@H]1CCCc2ccccc21
AC50 [4]: 7.51 µM (active) | AC50 [5]: > 52 µM (inactive)

CCN(CC)S(=O)(=O)c1ccc(-c2csc(NC(=O)C3CCCC3)n2)cc1
IC50 (Fatty acid synthase): 1.18 µM (active)

CNC[C@H](O)c1ccc(O)c(O)c1 [EPINEPHRINE BITARTRATE]
IC50 (Procathepsin L): > 59.6 µM (not active) | IC50 (Aspartyl aminopeptidase): 3.01 µM (active) | EC50 [7]: 0.586 µM (active)
